The record followed here is PMC11811597, “Phenomics‐Based Discovery of Novel Orthosteric Choline Kinase Inhibitors” (Angewandte Chemie (International Ed. in English), 2025).

Entries after “also recorded” stand apart in the source; their conditions may differ.

The subject of data set [1] is human peripheral blood mononuclear cells (PBMC). The data set can be described thus: B-cell assay with stimulated PBMCs from healthy donors. In kind it is cell-based. As to conditions: for cell viability (live CD19+ B cells, flow cytometry) / stimulation‐induced B cell maturation (CD27+IgD− memory B cells of live CD19+ B cells): 6 days of culture; for IgG secretion: stimulated PBMCs from healthy human blood donors, 6 days, dose-dependent; for stimulation‐induced B cell maturation (CD27+IgD− memory B cells of live CD19+ B cells): three healthy donors. As for the experimental part:
[…]
Background: A flow cytometer gives signals particle by particle.

Data set [2] has as its target T1, CHKA (Homo sapiens, UniProt P35790). The data set can be described thus: Competitive affinity-based chemoproteomics (UNC0965 matrix), MCF7 lysate. It counts as binding. Further details: endogenous in cells; host or cells: MCF7 whole cell lysate. As to conditions: 20 μM competitor; for FC vs DMSO (log2 competition), CHKA: MCF7 lysate, n=2; for competition for CHKA binding to affinity matrix: MCF7 lysates. On the procedure:
A-366 and UNC0638 were purchased from Tocris. ARIAD and V-11-07-11 were purchased from Wuxi Apptec. UNC0737 and UNC0965 were synthesised as previously described.[1] Hemicholinium-3 and pyruvate kinase/lactic dehydrogenase enzymes were purchased from Sigma Aldrich. Aqueous and organic solvents were MS-grade and acquired by Sigma Aldrich unless stated otherwise.
MDA-MB-231, MCF7 and HEK293 cells were cultured in DMEM (Gibco, #11965092) supplemented with 10% FBS. K562 were cultured in IMDM (Gibco, #12440053) supplemented with 10% FBS. HepG2 were cultured in MEM (Gibco, #11095080) supplemented with 10 % FBS. […]
cultured in McCoy’s 5A (Sigma, M8403) supplemented with 10 % FBS and 1x GlutaMAX (Gibco, #35050061). Cells were maintained at 37 °C in a humidified 5% CO2 atmosphere. Peripheral blood mononuclear cells (PBMC) were isolated from healthy blood donors by density centrifugation. […]
Chemical Proteomics Drug Pulldown
For lysate generation MCF7 cells were grown until approximately 80% confluency before being pelleted and washed with PBS. Cell pellets were subsequently lysed by addition of Buffer A (50 mM Tris pH 7.5, 0. 8% v/v NP-40, 5% v/v glycerol, 1.5 mM MgCl2, 100 mM NaCl, 25 mM NaF, 1 mM Na3VO4, 1 mM PMSF, 1 mM DTT, 10 μg mL−1 TLCK, 1 μg mL−1 Leupeptin, 1 μg mL−1 Aprotinin, 1 μg mL−1 soy bean trypsin) as previously described.[2]
For each pulldown condition, UNC0965 was coupled to 100 μL of UltraLink Immobilized Streptavidin Plus bead slurry (50% in isopropanol, GE Healthcare) to generate the affinity matrix as previously […]
described.[2] Lysates were precleared with bead slurry (100 μL) for 30 min at 4 °C and then treated with UNC0638 or UNC0737 (20 μM) or DMSO control for 30 min at 4 °C followed by incubation with affinity matrix for 2 h at 4 °C. Affinity matrices were washed with buffer A (5 mL) and proteins eluted with 100 μL of 2x Laemmli sample buffer, 100 mM DTT, in PBS and heating for 10 min at 90 °C.
Eluents (70 µL) were diluted in 0.1 M Tris (pH 7.8) to 200 µL, reduced with 5 mM DTT for 30 min at RT, and alkylated with 20 mM iodoacetamide for 30 min at RT in the dark. […]
Digested samples were analysed by nano-UPLC–MS/MS using a Dionex Ultimate 3000 nano UPLC fitted with an EASY spray column (75 μm × 500 mm, 2 μm particle size, Thermo Scientific), coupled to an Orbitrap Q Exactive instrument. […]
Raw data was processed using MaxQuant[3] version 2.0.1.0 and the reference complete human proteome FASTA file (UniProt, downloaded 05.08.21). Label Free Quantification (LFQ) and Match Between Runs were selected; Cysteine carbamidomethylation was selected as a fixed modification, and methionine oxidation and asparagine deamidation as variable modifications. Default settings for identification and quantification were used. […]
Target sequence in this assay (P35790 whole entry): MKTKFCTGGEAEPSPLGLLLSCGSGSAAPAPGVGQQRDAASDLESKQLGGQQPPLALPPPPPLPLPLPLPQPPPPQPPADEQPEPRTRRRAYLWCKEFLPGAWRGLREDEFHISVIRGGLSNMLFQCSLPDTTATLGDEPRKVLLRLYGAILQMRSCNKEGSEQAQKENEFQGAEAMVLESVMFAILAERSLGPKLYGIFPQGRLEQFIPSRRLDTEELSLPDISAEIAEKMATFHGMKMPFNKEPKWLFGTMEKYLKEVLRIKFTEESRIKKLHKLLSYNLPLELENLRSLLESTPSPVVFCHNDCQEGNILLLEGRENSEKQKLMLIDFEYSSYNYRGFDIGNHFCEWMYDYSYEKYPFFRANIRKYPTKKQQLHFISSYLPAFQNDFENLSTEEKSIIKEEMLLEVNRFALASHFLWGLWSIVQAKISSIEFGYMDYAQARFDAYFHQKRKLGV

Data set [3] concerns the target T1, CHKA. The experiment in a line: Differential scanning fluorimetry (DSF). It counts as binding. The arrangement: host or cells: E. coli BL21(DE3). As to conditions: 10 µM compound, 2 µM CHKA. On the procedure: mM NaCl, 5% glycerol, 500 mM imidazole, 0.5% TCEP, pH 7.5), the eluent was concentrated, and further purified by size exclusion chromatography using a HiLoad 16/600 Superdex S200 column (Cytiva) pre-equilibrated in Buffer C (20 mM HEPES, 150 mM NaCl, pH 7.5). The resulting protein purity was assessed by SDS-PAGE, and protein identity was confirmed by tryptic digest analysis. Protein concentration was determined to be 35.5 mg/mL, and was calculated using a theoretical molar extinction coefficient of 58830 M-1cm-1 as determined by ProtParam.[5] […]
Differential Scanning Fluorimetry (DSF)
DSF buffer (20 mM HEPES, 150 mM NaCl, 0.5 mM TCEP, pH 7.5) containing 5x SYPRO Orange (Thermo Fisher Scientific) and CHKA (2 µM) was incubated with 10 µM compound at 2% DMSO final concentration in a 96-well semi-skirted real time PCR plate. Fluorescence was measured in each well over a 40-80 °C gradient using a Stratagen MX3005p qPCR instrument (Agilent Technologies). […]
Target sequence in this assay (P35790 75-457 limits assumed): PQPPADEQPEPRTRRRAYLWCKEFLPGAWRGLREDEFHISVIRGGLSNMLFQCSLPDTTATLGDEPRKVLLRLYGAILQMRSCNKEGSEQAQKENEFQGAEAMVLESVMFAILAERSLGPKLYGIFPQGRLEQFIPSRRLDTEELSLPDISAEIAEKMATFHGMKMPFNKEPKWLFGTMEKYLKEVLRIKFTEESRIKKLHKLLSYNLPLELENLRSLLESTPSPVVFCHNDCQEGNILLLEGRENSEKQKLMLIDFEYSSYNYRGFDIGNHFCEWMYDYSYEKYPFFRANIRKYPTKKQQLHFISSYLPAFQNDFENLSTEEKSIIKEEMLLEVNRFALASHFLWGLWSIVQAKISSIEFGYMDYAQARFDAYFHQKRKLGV

Take `COc1cc2c(NC3CCN(C(C)C)CC3)nc(C3CCCCC3)nc2cc1OCCCN1CCCC1` [UNC0638]: in data set [1], the “cell viability (live CD19+ B cells, flow cytometry)” value is “not markedly affected”; the IgG secretion entry was “reduction of IgG secretion”; the “stimulation‐induced B cell maturation (CD27+IgD− memory B cells of live CD19+ B cells)” value was “reduce”. Also, on CHKA [2], the “FC vs DMSO (log2 competition), CHKA” value is -2.284 and the “competition for CHKA binding to affinity matrix” value is reported as “shared off‐target”. For the same compound, the “thermal stabilisation of CHKA (DSF)” value at CHKA [3] was “thermal stabilisation”.

Consider `COc1cc2c(N(C)C3CCN(C(C)C)CC3)nc(C3CCCCC3)nc2cc1OCCCN1CCCC1` [UNC0737], for which, in data set [1], the “cell viability (live CD19+ B cells, flow cytometry)” value is recorded as “not markedly affected”; the IgG secretion result is listed as “reduction of IgG secretion”; the “stimulation‐induced B cell maturation (CD27+IgD− memory B cells of live CD19+ B cells)” value is listed as “reduce”. On CHKA [2], the “FC vs DMSO (log2 competition), CHKA” value is recorded as -4.09 and the “competition for CHKA binding to affinity matrix” value is “shared off‐target; also recorded: even stronger competition”. For the same compound, the “thermal stabilisation of CHKA (DSF)” value at CHKA [3] is listed as “thermal stabilisation”.
